For 21 compounds, IC50 results are on record in patent US9549921B2, “Heterocyclic compounds and methods of use thereof for the treatment of hepatitis C” (priority 2014, dated 2017).

Like-named read-outs stand apart in the source and are kept apart here.

One assay concerns HCV replicon genotype 1a. The assay is described as follows: HCV replicon assay, genotype 1a (cell ELISA for NS3/4A). Type of assay: cell-based, hepatitis C virus. In a few lines: (§1)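 Stable neomycin-resistant replicon cell lines (genotype 1a or 1b) incubated 96 h with compound dilution series without G418. After washing and lysis, replication measured by cell ELISA for replicon-encoded NS3/4A protein; IC50 as % of DMSO control via four-parameter fit.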
In general terms: A replicon is a self-replicating genome or part of one, used to study replication in cells.

The test system of another assay is HCV replicon genotype 1b. Put plainly: HCV replicon assay, genotype 1b (cell ELISA for NS3/4A). Type of assay: cell-based, hepatitis C virus. Summed up:
as §1

Setting [1] is: read-out: 1a IC50, HCV genotype 1a replicon cells, 96 hours incubation, NS3/4A ELISA readout, % of DMSO control.
Setting [2] is: read-out: 1b IC50, HCV genotype 1b replicon cells, 96 hours incubation, NS3/4A ELISA readout, % of DMSO control.
Setting [3] is: Hepatitis C virus, 96 h, read-out: 1a IC50 (nM), HCV genotype 1a replicon cells, 96 hours incubation, NS3/4A ELISA readout, % of DMSO control.
Where [4] appears, read: Hepatitis C virus, 96 h, read-out: 1b IC50 (nM), HCV genotype 1b replicon cells, 96 hours incubation, NS3/4A ELISA readout, % of DMSO control.

Regarding `CNC(=O)c1c(-c2ccc(F)cc2)oc2cc(N(C)S(C)(=O)=O)c([C@@H]3CCCN(C(=O)C4CC4c4ccccn4)C3)cc12` (stereo partly drawn) [Example 60, 2-(4-fluorophenyl)-N-methyl-6-[methyl(methylsulfonyl)amino]-5-{1-[(2-pyridin-2-ylcyclopropyl)carbonyl]piperidin-3-yl}-1-benzofuran-3-carboxamide], the IC50 in the assay on HCV replicon genotype 1a (setting [1]) was determined as 116 nM; in the assay on HCV replicon genotype 1b (setting [2]), 40.3 nM.
Take `CNC(=O)c1c(-c2ccc(F)cc2)oc2cc(N(C)S(C)(=O)=O)c([C@@H]3CCCN(C(=O)c4oc5ccc(F)cc5c4C)C3)cc12` [Example 62, 5-{1-[(5-fluoro-3-methyl-1-benzofuran-2-yl)carbonyl]piperidin-3-yl}-2-(4-fluorophenyl)-N-methyl-6-[methyl(methylsulfonyl)amino]-1-benzofuran-3-carboxamide]: the IC50 in the assay with HCV replicon genotype 1a (setting [3]) is 192 nM; with HCV replicon genotype 1b (setting [4]) it was 41.2 nM.
For `CNC(=O)c1c(-c2ccc(F)cc2)oc2cc(N(C)S(C)(=O)=O)c([C@@H]3CCCN(C(=O)C=C(C)C)C3)cc12` [Example 63, 2-(4-fluorophenyl)-N-methyl-5-[1-(3-methylbut-2-enoyl)piperidin-3-yl]-6-[methyl(methylsulfonyl)amino]-1-benzofuran-3-carboxamide] the same measures were 156 nM and 68.1 nM.
Taken in the same sequence, the figures for `CNC(=O)c1c(-c2ccc(F)cc2)oc2cc(N(C)S(C)(=O)=O)c([C@@H]3CCCN(C(=O)c4cc5c(OC)cccc5[nH]4)C3)cc12` [Example 64, 2-(4-fluorophenyl)-5-{1-[(4-methoxy-1H-indol-2-yl)carbonyl]piperidin-3-yl}-N-methyl-6-[methyl(methylsulfonyl)amino]-1-benzofuran-3-carboxamide] were 135 nM and 40.7 nM.
Consider `CNC(=O)c1c(-c2ccc(F)cc2)oc2cc(N(C)S(C)(=O)=O)c([C@@H]3CCCN(C(=O)c4cc5ncccc5[nH]4)C3)cc12` [Example 65, 2-(4-fluorophenyl)-N-methyl-6-[methyl(methylsulfonyl)amino]-5-[1-(1H-pyrrolo[3,2-b]pyridin-2-ylcarbonyl)piperidin-3-yl]-1-benzofuran-3-carboxamide], for which the values for the IC50 in the assay with HCV replicon genotype 1a (setting [3]) and in the assay with HCV replicon genotype 1b (setting [4]) were 140 nM and 46.3 nM, respectively.
For `CNC(=O)c1c(-c2ccc(F)cc2)oc2cc(N(C)S(C)(=O)=O)c([C@@H]3CCCN(C(=O)c4cc5ccccc5n4C)C3)cc12` [Example 67, 2-(4-fluorophenyl)-N-methyl-5-{1-[(1-methyl-1H-indol-2-yl)carbonyl]piperidin-3-yl}-6-[methyl(methylsulfonyl)amino]-1-benzofuran-3-carboxamide] the same measures were 156 nM and 87.4 nM.
With `CNC(=O)c1c(-c2ccc(F)cc2)oc2cc(N(C)S(C)(=O)=O)c([C@@H]3CCCN(C(=O)CC4CCCCC4)C3)cc12` [Example 68, 5-[1-(cyclohexylacetyl)piperidin-3-yl]-2-(4-fluorophenyl)-N-methyl-6-[methyl(methylsulfonyl)amino]-1-benzofuran-3-carboxamide], the IC50 with HCV replicon genotype 1a (setting [3]) stood at 98 nM; with HCV replicon genotype 1b (setting [4]) it was 89 nM.
For `CNC(=O)c1c(-c2ccc(F)cc2)oc2cc(N(C)S(C)(=O)=O)c([C@@H]3CCCN(C(=O)c4nc5ccccc5s4)C3)cc12` [Example 69, 5-[1-(1,3-benzothiazol-2-ylcarbonyl)piperidin-3-yl]-2-(4-fluorophenyl)-N-methyl-6-[methyl(methylsulfonyl)amino]-1-benzofuran-3-carboxamide] the same measures were 74.4 nM and 22.8 nM.
`CNC(=O)c1c(-c2ccc(F)cc2)oc2cc(N(C)S(C)(=O)=O)c([C@@H]3CCCN(C(=O)c4c[nH]cc4-c4ccc(F)cc4)C3)cc12` [Example 71, 2-(4-fluorophenyl)-5-(1-{[4-(4-fluorophenyl)-1H-pyrrol-3-yl]carbonyl}piperidin-3-yl)-N-methyl-6-[methyl(methylsulfonyl)amino]-1-benzofuran-3-carboxamide]: the IC50 with HCV replicon genotype 1a (setting [3]) came to 168 nM; in the assay with HCV replicon genotype 1b (setting [4]) it was 95.4 nM.
For `CNC(=O)c1c(-c2ccc(F)cc2)oc2cc(N(C)S(C)(=O)=O)c([C@@H]3CCCN(C(=O)c4coc(-c5ccc(F)cc5)n4)C3)cc12` [Example 72, 2-(4-fluorophenyl)-5-(1-{[2-(4-fluorophenyl)-1,3-oxazol-4-yl]carbonyl}piperidin-3-yl)-N-methyl-6-[methyl(methylsulfonyl)amino]-1-benzofuran-3-carboxamide] the same measures were 125 nM and 23.6 nM.
As to `CNC(=O)c1c(-c2ccc(F)cc2)oc2cc(N(C)S(C)(=O)=O)c([C@@H]3CCCN(C(=O)c4cc(-c5ccc(F)cc5)n[nH]4)C3)cc12` [Example 73, 2-(4-fluorophenyl)-5-(1-{[3-(4-fluorophenyl)-1H-pyrazol-5-yl]carbonyl}piperidin-3-yl)-N-methyl-6-[methyl(methylsulfonyl)amino]-1-benzofuran-3-carboxamide], the IC50 was determined as 50.5 nM in the assay on HCV replicon genotype 1a (setting [3]) and 23.4 nM in the assay with HCV replicon genotype 1b (setting [4]).
For the compound `CNC(=O)c1c(-c2ccc(F)cc2)oc2cc(N(C)S(C)(=O)=O)c([C@@H]3CCCN(C(=O)c4cc5sccc5n4C)C3)cc12` [Example 74, 2-(4-fluorophenyl)-N-methyl-6-[methyl(methylsulfonyl)amino]-5-{1-[(4-methyl-4H-thieno[3,2-b]pyrrol-5-yl)carbonyl]piperidin-3-yl}-1-benzofuran-3-carboxamide], the IC50 in the assay on HCV replicon genotype 1a (setting [3]) was found to be 54.8 nM; in the assay on HCV replicon genotype 1b (setting [4]), 43.4 nM.
Taken in the same sequence, the figures for `CNC(=O)c1c(-c2ccc(F)cc2)oc2cc(N(C)S(C)(=O)=O)c([C@@H]3CCCN(C(=O)c4nc5ccc(F)cc5s4)C3)cc12` [Example 75, 5-{1-[(6-fluoro-1,3-benzothiazol-2-yl)carbonyl]piperidin-3-yl}-2-(4-fluorophenyl)-N-methyl-6-[methyl(methylsulfonyl)amino]-1-benzofuran-3-carboxamide] were 72.3 nM and 12 nM.
For `CNC(=O)c1c(-c2ccc(F)cc2)oc2cc(N(C)S(C)(=O)=O)c([C@@H]3CCCN(C(=O)c4nc5ccc(F)cc5[nH]4)C3)cc12` [Example 76, 5-{1-[(6-fluoro-1H-benzimidazol-2-yl)carbonyl]piperidin-3-yl}-2-(4-fluorophenyl)-N-methyl-6-[methyl(methylsulfonyl)amino]-1-benzofuran-3-carboxamide] the same measures were 49.4 nM and 9.96 nM.
As to `CNC(=O)c1c(-c2ccc(F)cc2)oc2cc(N(C)S(C)(=O)=O)c([C@@H]3CCCN(C(=O)c4nc5ccccc5o4)C3)cc12` [Example 77, 5-[1-(1,3-benzoxazol-2-ylcarbonyl)piperidin-3-yl]-2-(4-fluorophenyl)-N-methyl-6-[methyl(methylsulfonyl)amino]-1-benzofuran-3-carboxamide], the IC50 in the assay with HCV replicon genotype 1a (setting [3]) came to 64.3 nM; with HCV replicon genotype 1b (setting [4]), 19.2 nM.
`CNC(=O)c1c(-c2ccc(F)cc2)oc2cc(N(C)S(C)(=O)=O)c([C@@H]3CCCN(C(=O)C4CC4c4ccccn4)C3)cc12` (stereo partly drawn) [Example 78, 2-(4-fluorophenyl)-N-methyl-6-[methyl(methylsulfonyl)amino]-5-{1-[(2-pyridin-2-ylcyclopropyl)carbonyl]piperidin-3-yl}-1-benzofuran-3-carboxamide]: the IC50 with HCV replicon genotype 1a (setting [1]) amounted to 248 nM; in the assay on HCV replicon genotype 1b (setting [2]), 81.2 nM.
Regarding `CNC(=O)c1c(-c2ccc(F)cc2)oc2cc(N(C)S(C)(=O)=O)c([C@H]3CCCN(S(=O)(=O)/C=C/c4ccccc4)C3)cc12` [Example 79, 2-(4-fluorophenyl)-N-methyl-6-[methyl(methylsulfonyl)amino]-5-[(3R)-1-{[(E)-2-phenylethenyl]sulfonyl}piperidin-3-yl]-1-benzofuran-3-carboxamide], the results for the IC50 in the assay on HCV replicon genotype 1a (setting [3]) and with HCV replicon genotype 1b (setting [4]) were 64.8 nM and 33.1 nM, respectively.
For `CNC(=O)c1c(-c2ccc(F)cc2)oc2cc(N(C)S(C)(=O)=O)c([C@H]3CCCN(S(=O)(=O)Cc4ccc(F)cc4)C3)cc12` [Example 80, 5-{(3R)-1-[(4-fluorobenzyl)sulfonyl]piperidin-3-yl}-2-(4-fluorophenyl)-N-methyl-6-[methyl(methylsulfonyl)amino]-1-benzofuran-3-carboxamide] the same measures were 3.17 nM and 4.5 nM.
For `CNC(=O)c1c(-c2ccc(F)cc2)oc2cc(N(C)S(C)(=O)=O)c([C@H]3CCCN(S(=O)(=O)Cc4ccccc4F)C3)cc12` [Example 81, 5-{(3R)-1-[(2-fluorobenzyl)sulfonyl]piperidin-3-yl}-2-(4-fluorophenyl)-N-methyl-6-[methyl(methylsulfonyl)amino]-1-benzofuran-3-carboxamide] the same measures were 14.1 nM and 11.6 nM.
With `CNC(=O)c1c(-c2ccc(F)cc2)oc2cc(N(C)S(C)(=O)=O)c([C@H]3CCCN(S(=O)(=O)Cc4cccc(F)c4)C3)cc12` [Example 82, 5-{(3R)-1-[(3-fluorobenzyl)sulfonyl]piperidin-3-yl}-2-(4-fluorophenyl)-N-methyl-6-[methyl(methylsulfonyl)amino]-1-benzofuran-3-carboxamide], the IC50 in the assay with HCV replicon genotype 1a (setting [3]) is 2.2 nM; in the assay on HCV replicon genotype 1b (setting [4]) it was 3.26 nM.
For `CNC(=O)c1c(-c2ccc(F)cc2)oc2cc(N(C)S(C)(=O)=O)c([C@H]3CCCN(S(=O)(=O)c4cc5ccccc5o4)C3)cc12` [Example 83, 5-[(3R)-1-(1-benzofuran-2-ylsulfonyl)piperidin-3-yl]-2-(4-fluorophenyl)-N-methyl-6-[methyl(methylsulfonyl)amino]-1-benzofuran-3-carboxamide] the same measures were 38.2 nM and 22.4 nM.
